Data set [1] is described as follows: Antagonist concentrations in blood (plasma) following oral administration. The format is in vivo. Conditions: cynomolgus monkeys. The protocol:
Measurement of Antagonist Concentrations in Blood Following Oral Administration
Antagonists dissolved in ethanol (5 to 75 mg/ml) and added to 20 mM NaHCO3 pH 8.0. The resulting suspension (7 to 13 ml containing 10% ethanol) was administered by gavage (between 1 and 30 mg/kg) to cynomolgous monkeys (3 to 4 kg body weight). After different times (between 0.5 and 24 h as well as just prior to administration of antagonist) blood samples (1-2 ml) were taken and centrifuged to obtain plasma, which was frozen and transported to the laboratory as soon as the experiment was complete. Upon arrival at the laboratory, the plasma samples were thawed and the internal standards (1.5 μg), along with 2 volumes of MeOH, were added, the mixture vortexed, and then stored at −80° C. until analysis. The internal standards were structural analogs containing different numbers of methylene groups. Prior to analysis the plasma samples were warmed to room temperature, the above plasma samples containing MeOH were centrifuged and water was added to the supernatant to give a final concentration of 30%. The samples were then applied to a C18 SepPak cartridge (Waters Associates) that had previously been washed with MeOH followed by water (Powell, W. S., Prostaglandins, 1980. 20: p. 947-957). The extracts were analyzed by reversed-phase HPLC combined with automated precolumn extraction (Powell, W. S., Anal. Biochem., 1987. 164: p. 117-131). The stationary phase for the separation was a Novapak C18 column (4 μm particle size; 3.9×150 mm). The amounts of antagonists were determined on the basis of UV absorbance by comparing the peak area for the antagonist in question with that for the corresponding internal standard and correcting for any difference in extinction coefficient.
To examine the PK profiles of compounds V197 and V230 these compounds were administered to cynomolgus monkeys by oral gavage at a dose of 30 mg/kg. Plasma levels were measured following solid-phase extraction by reversed-phase high performance liquid chromatography (HPLC) after 0.5, 1, 2, 4, 8, 18, and 24 h using appropriate internal standards.

The target of data set [2] is T1, OXE receptor (Homo sapiens, UniProt Q8TDS5).
T1 construct: Human granulocytes (≥95% neutrophils) are prepared from whole blood; endogenous in cells; host or cells: human granulocytes (≥95% neutrophils) from whole blood
Put plainly: Calcium mobilization in human granulocytes (inhibition of 5-oxo-ETE-induced calcium mobilization). The format is cell-based. The settings on record: for times less potent than compound V230 in blocking 5-oxo-ETE-induced calcium mobilization in neutrophils: relative to V230. The protocol: Evaluation of Antagonist Activity: Calcium Mobilization in Human Granulocytes
Human granulocytes (≥95% neutrophils) are prepared from whole blood using Dextran 500 to remove red blood cells, followed by centrifugation over Ficoll-Paque to remove mononuclear cells and hypotonic lysis of any remaining red blood cells. After centrifugation the granulocytes are suspended in Ca^++/Mg^++-free phosphate-buffered saline (PBS^−). Granulocytes (10^7 cells/ml) are incubated with the acetoxymethyl ester of indo-1 (1 μM) for 30 min, followed by washing twice with PBS^− and resuspension in the same medium to obtain a final cell concentration of 3.22×10^6 cells/ml. Five minutes prior to commencing data acquisition, Ca^++ and Mg^++ are added to give final concentrations of 1.8 and 1 mM, respectively. Calcium measurements are performed at 37° C. using a spectrofluorometer equipped with a temperature-controlled cuvette holder and a magnetic stirrer. The excitation and emission wavelengths are 331 nm and 410 nm, respectively. Following stabilization of the baseline, fluorescence is measured for 1 min, prior to the addition of either vehicle or various concentrations of a potential 5-oxo-ETE antagonist. Two min later, 5-oxo-ETE (10 nM) is added, followed 1 min later by digitonin (final concentration 0.1%). Data acquisition is terminated after a further 0.5 min. Fmax is determined from fluorescence measurements after the addition of digitonin, whereas Fmin is determined after determination of autofluorescence as described in the literature. A dissociation constant of 250 nM for the indo-1/Ca^++ complex is used to calculate [Ca^++]i. The % inhibition of 5-oxo-ETE-induced calcium mobilization by the antagonist is calculated as follows: Inhibition (%)=(1−(Caant/Ca^++veh))×100 where Caant is the increase in cytosolic calcium levels induced by 5-oxo-ETE (10 nM) following the addition of a potential antagonist, whereas Caveh is the response induced by 5-oxo-ETE following addition of vehicle alone.
Background: Calcium assays in cells follow changes in intracellular calcium, usually with a dye or a luminescent sensor.

Data set [3] in a line: Metabolism of OXE antagonists by monkey liver microsomes. The format is in vitro ADME, cynomolgous monkey. On the procedure: Metabolism of OXE Antagonists by Monkey Microsomes
Microsomes (catalog number MKMC-PL) from cynomolgous monkey liver were obtained from Life Technologies. Antagonists (100 μM) were incubated for various times with liver microsomes (0.5 mg protein/ml) in PBS in the presence of NADPH (2 mM). After various times aliquots (0.1 ml) were removed and placed in a tube containing 0.36 ml ice-cold methanol. After addition of 0.74 ml of water along with 1 μg of an appropriate internal standard the samples were stored at −80° C. until analysis by reversed-phase HPLC.
In general terms: Liver microsomes are vesicles of endoplasmic reticulum, rich in cytochrome P450 enzymes.

Data set [4] deals with 5-oxo-ETE-induced dermal eosinophil infiltration. Put plainly: Inhibition of 5-oxo-ETE-induced dermal eosinophil infiltration. It counts as in vivo. Conditions: Rhesus monkeys, biopsy at 24 h. On the procedure:
Inhibition of 5-Oxo-ETE-Induced Dermal Eosinophil Infiltration
Rhesus monkeys (n=6) were injected intradermally with 5-oxo-ETE (5 μg) or vehicle. Compound 50 (5 or 10 mg/kg) or vehicle were administered by oral gavage both 1 h before and 7 h after injection of 5-oxo-ETE.
Skin biopsies were taken 24 h after administration of 5-oxo-ETE and sections from paraffin-embedded tissue were stained for eosinophil major basic protein, followed by counting of eosinophils.

Data set [5] deals with T1, OXE receptor. Conditions: previously described values for V230 and its enantiomers; read-out: IC50, previously disclosed/reported; cited from earlier work.
Setting [6] is: oral gavage 30 mg/kg, over 24 h.
Where [7] appears, read: inhibition of calcium mobilization induced by 5-oxo-ETE (10 nM) in human granulocytes, bracketed figure in cell = n, read-out: IC50.
Where [8] appears, read: 5-oxo-ETE-induced calcium mobilization.
Setting [9] is: oral gavage 30 mg/kg, over 24 h, 30 mg/kg.

Molecules are shown by their SMILES. “Also recorded” adds a separate entry of the source. Read-outs that look alike come from different tables or passages of the source.

T1 sequence (Q8TDS5 whole entry): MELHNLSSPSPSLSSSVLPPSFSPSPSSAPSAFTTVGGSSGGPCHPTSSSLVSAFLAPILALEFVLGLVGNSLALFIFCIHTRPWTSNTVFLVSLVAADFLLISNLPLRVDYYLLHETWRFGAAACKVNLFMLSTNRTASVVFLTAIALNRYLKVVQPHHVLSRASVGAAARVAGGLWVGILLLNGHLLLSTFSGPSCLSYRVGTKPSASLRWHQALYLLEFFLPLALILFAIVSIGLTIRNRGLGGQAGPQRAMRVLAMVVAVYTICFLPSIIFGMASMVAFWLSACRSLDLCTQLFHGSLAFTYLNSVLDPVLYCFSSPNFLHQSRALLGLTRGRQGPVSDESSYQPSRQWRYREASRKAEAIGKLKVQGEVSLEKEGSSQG

As to `CC(CC(=O)O)CC(=O)c1c(CCCCCCc2ccccc2)n(C)c2ccc(Cl)cc12` (racemic) [Compound 15, 5-(5-chloro-1-methyl-2-(6-phenylhexyl)-1H-indol-3-yl)-3-methyl-5-oxopentanoic acid], in data set [1] (setting [6]), the “course of plasma levels / PK profile in words” value is listed as “declined much more slowly than the S-enantiomer”. Besides, the IC50 on OXE receptor [2] (setting [7]) is 0.18 nM.

In the case of `C[C@@H](CC(=O)O)CC(=O)c1c(CCCCCCc2ccccc2)n(C)c2ccc(Cl)cc12` (single isomer, unassigned) [Compound 61], the “course of plasma levels / PK profile in words” value in data set [1] (setting [6]) is “higher than those of the S-enantiomer and dropped much more slowly”. For the same compound, at OXE receptor [2] (setting [7]), the IC50 was determined as 23 ± 2 nM.

With `C[C@H](CC(=O)O)CC(=O)c1c(CCCCCCc2ccccc2)n(C)c2ccc(Cl)cc12` [Compound 46, (S)-5-(5-chloro-1-methyl-2-(6-phenylhexyl)-1H-indol-3-yl)-3-methyl-5-oxopentanoic acid], the “difference in unmetabolized:metabolized ratio versus V230” value in data set [3] (4 h, in favor of 46) was 4 fold. In data set [1] (setting [6]), the “course of plasma levels / PK profile in words” value is “fell much more slowly” and the “plasma levels relative to V230 at later time points” value is “at least 10 times higher”. Further, the IC50 at OXE receptor [2] (setting [7]) came to 0.1 nM.

Turning to `C[C@H](CC(=O)O)CC(=O)c1c(C(O)CCCCCc2ccccc2)n(C)c2ccc(Cl)cc12` (stereo partly drawn) [Compound 46M], in data set [1] (oral gavage 30 mg/kg (46M after administration of 46)), the “time to peak / maximal plasma levels” value fell in the range of 8 to 12 h. Besides, on OXE receptor [2] (setting [8]), the “antagonist activity / potency in words” value is 5-oxo-ETE-induced calcium mobilization inhibitors. In addition, the IC50 at OXE receptor [2] (setting [7]) came out at 0.8 ± 0.3 nM.

As to `C[C@H](CC(=O)O)CC(=O)c1c(CCCCCCc2cccc(Cl)c2)n(C)c2ccc(Cl)cc12` [Compound 50, (S)-5-(5-chloro-2-(6-(3-chlorophenyl)hexyl)-1-methyl-1H-indol-3-yl)-3-methyl-5-oxopentanoic acid], the 5-Oxo-ETE-induced eosinophil infiltration result in data set [4] (5 mg/kg oral gavage 1 h before and 7 h after 5-oxo-ETE, p<0.005) was “significantly inhibited”; in data set [4] (10 mg/kg oral gavage 1 h before and 7 h after 5-oxo-ETE, p<0.02) it was “significantly inhibited”. The IC50 at OXE receptor [2] (5-oxo-ETE-induced calcium mobilization, read-out: potency (IC50) in the picomolar range) is around 0.008 nM; at OXE receptor [2] (setting [7]) it was 0.0081 ± 0.0013 nM.

As for `C[C@@H](CC(=O)O)CC(=O)c1c(CCCC/C=C\c2ccccc2)n(C)c2ccc(Cl)cc12` [Compound 96], the IC50 at OXE receptor [2] (setting [7]) is 5.5 nM.

For `C[C@H](CC(=O)O)CC(=O)c1c(CCCC/C=C/c2ccccc2)n(C)c2ccc(Cl)cc12` [Compound 97], the IC50 on OXE receptor [2] (setting [7]) amounted to 0.071 ± 0.024 nM.

Consider `C[C@@H](CC(=O)O)CC(=O)c1c(CCCC/C=C/c2ccccc2)n(C)c2ccc(Cl)cc12` [Compound 98], for which, at OXE receptor [2] (setting [7]), the IC50 is 1.1 ± 0.19 nM.

For `CC(C)CCCCc1c(C(=O)CC(C)CC(=O)O)c2cc(Cl)ccc2n1C` (stereo not drawn) [Compound V197, reference compound], the “course of plasma levels / PK profile in words” value in data set [1] (setting [9]) is on record as “dropped quite rapidly after 1 h; also recorded: inferior to that of compound V230”. Moreover, the IC50 on OXE receptor [2] (setting [7]) was found to be 20 nM.

Consider `CCC(C)CCCc1c(C(=O)CC(C)CC(=O)O)c2cc(Cl)ccc2n1C` (stereo not drawn) [Compound V225, reference compound], for which, at OXE receptor [2] (setting [8]), the “antagonist activity / potency in words” value is “somewhat less potent”. Moreover, at OXE receptor [2] (setting [7]), the IC50 turned out to be 88 ± 26 nM.

Take `CCCCCCc1c(C(=O)C[C@H](C)CC(=O)O)c2cc(Cl)ccc2n1C` [Compound V230, reference compound]: the “extent of metabolism by microsomes in words” value in data set [3] (NADPH, up to 4 h, compared with 46) is “much greater”. The “extent of metabolism in plasma in words” value in data set [1] (oral gavage 30 mg/kg, after 8 h, compared with 46) is recorded as “much greater”. Besides, the “course of plasma levels / PK profile in words” value in data set [1] (setting [9]) is on record as “dropped quite rapidly after 1 h; also recorded: rapid decline”. The IC50 at OXE receptor [5] is 26 ± 4 nM.

Regarding `CCCCCC(O)c1c(C(=O)CC(C)CC(=O)O)c2cc(Cl)ccc2n1C` (stereo not drawn) [Compound V230M, reference compound], the “antagonist activity / potency in words” value on OXE receptor [2] (setting [8]) is “significantly reduced IC50”. The IC50 at OXE receptor [2] (setting [7]) came out at 3300 ± 1100 nM.

Take `CC(O)CCCCc1c(C(=O)CC(C)CC(=O)O)c2cc(Cl)ccc2n1C` (stereo not drawn) [Met a V230 (ω-1)OH, reference compound]: the IC50 at OXE receptor [2] (setting [7]) was 1600 ± 400 nM. In addition, the “times less potent than compound V230 in blocking 5-oxo-ETE-induced calcium mobilization in neutrophils” value at OXE receptor [2] is given as “about 100 times”.

Regarding `CC(=O)CCCCc1c(C(=O)CC(C)CC(=O)O)c2cc(Cl)ccc2n1C` (stereo not drawn) [Met b V230 (ω-1)oxo, reference compound], the IC50 on OXE receptor [2] (setting [7]) amounted to 1900 ± 500 nM. Besides, the “times less potent than compound V230 in blocking 5-oxo-ETE-induced calcium mobilization in neutrophils” value at OXE receptor [2] is “about 100 times”.

As for `CC(CC(=O)O)CC(=O)c1c(CCCCCCO)n(C)c2ccc(Cl)cc12` (stereo not drawn) [V230 ω-OH, reference compound], at OXE receptor [2] (setting [7]), the IC50 is 260 ± 30 nM.

These data come from patent publication US10501414B2, “Indole analogs as 5-oxo-ETE receptor antagonists and method of use thereof” (THE ROYAL INSTITUTION FOR THE ADVANCEMENT OF …, priority 2015, dated 2019).
